Experimental data published in paper PMC10905675, “INX-315, a Selective CDK2 Inhibitor, Induces Cell Cycle Arrest and Senescence in Solid Tumors” (Cancer Discovery, 2023).

Experiments:
Assay in all cases: SelectScreen ZLYTE
Assay type in all cases: biochemical
Details in all cases: INX-0315 at 100nM
[1] = biological target: T1, ABL1 G250E (Homo sapiens, UniProt P00519, G250E)
T1 construct: purchased Thermo Fisher Scientific SelectScreen (plus Nanosyn / Reaction Biology for CDK/cyclin lines)
Excerpt: (§1) INX-315 was first evaluated in the SelectScreen Biochemical Kinase Profiling at Thermo Fisher Scientific (Madison, WI). The primary screen consisted of INX-315 dosed at a single concentration of 100 nmol/L in 1% DMSO across each platform within the SelectScreen array of assays, LanthaScreen Eu Kinase Binding Assay; AdaptaScreen; and Z'LyteScreen using preestablished conditions at Thermo Fisher Scientific as shown in Supplementary Table S2. […] The follow-up screen consisted of 10-point dose–response curves for INX-315 from 1 µmol/L to 0.0495 nmol/L.

[2] = biological target: T2, ADRBK2 (GRK3) (Homo sapiens, UniProt P35626)
T2 construct: purchased Thermo Fisher Scientific SelectScreen (plus Nanosyn / Reaction Biology for CDK/cyclin lines)
Excerpt: as §1

[3] = biological target: T3, AMPK (A2/B1/G2) (Homo sapiens, UniProt P54646)
T3 construct: purchased Thermo Fisher Scientific SelectScreen (plus Nanosyn / Reaction Biology for CDK/cyclin lines)
Excerpt: as §1

[4] = biological target: T4, CDC42 BPG (MRCKG) (Homo sapiens, UniProt Q6DT37)
T4 construct: purchased Thermo Fisher Scientific SelectScreen (plus Nanosyn / Reaction Biology for CDK/cyclin lines)
Excerpt: as §1

[5] = biological target: T5, CSNK2A1 (CK2 alpha 1) (Homo sapiens, UniProt P68400)
T5 construct: purchased Thermo Fisher Scientific SelectScreen (plus Nanosyn / Reaction Biology for CDK/cyclin lines)
Excerpt: as §1

[6] = biological target: T6, DYRK1A (Homo sapiens, UniProt Q13627)
T6 construct: purchased Thermo Fisher Scientific SelectScreen (plus Nanosyn / Reaction Biology for CDK/cyclin lines)
Excerpt: as §1

[7] = biological target: T7, EGFR (ErbB1) T790M (Homo sapiens, UniProt P00533, T790M)
T7 construct: purchased Thermo Fisher Scientific SelectScreen (plus Nanosyn / Reaction Biology for CDK/cyclin lines)
T7 sequence (P00533 25-1210 T790M): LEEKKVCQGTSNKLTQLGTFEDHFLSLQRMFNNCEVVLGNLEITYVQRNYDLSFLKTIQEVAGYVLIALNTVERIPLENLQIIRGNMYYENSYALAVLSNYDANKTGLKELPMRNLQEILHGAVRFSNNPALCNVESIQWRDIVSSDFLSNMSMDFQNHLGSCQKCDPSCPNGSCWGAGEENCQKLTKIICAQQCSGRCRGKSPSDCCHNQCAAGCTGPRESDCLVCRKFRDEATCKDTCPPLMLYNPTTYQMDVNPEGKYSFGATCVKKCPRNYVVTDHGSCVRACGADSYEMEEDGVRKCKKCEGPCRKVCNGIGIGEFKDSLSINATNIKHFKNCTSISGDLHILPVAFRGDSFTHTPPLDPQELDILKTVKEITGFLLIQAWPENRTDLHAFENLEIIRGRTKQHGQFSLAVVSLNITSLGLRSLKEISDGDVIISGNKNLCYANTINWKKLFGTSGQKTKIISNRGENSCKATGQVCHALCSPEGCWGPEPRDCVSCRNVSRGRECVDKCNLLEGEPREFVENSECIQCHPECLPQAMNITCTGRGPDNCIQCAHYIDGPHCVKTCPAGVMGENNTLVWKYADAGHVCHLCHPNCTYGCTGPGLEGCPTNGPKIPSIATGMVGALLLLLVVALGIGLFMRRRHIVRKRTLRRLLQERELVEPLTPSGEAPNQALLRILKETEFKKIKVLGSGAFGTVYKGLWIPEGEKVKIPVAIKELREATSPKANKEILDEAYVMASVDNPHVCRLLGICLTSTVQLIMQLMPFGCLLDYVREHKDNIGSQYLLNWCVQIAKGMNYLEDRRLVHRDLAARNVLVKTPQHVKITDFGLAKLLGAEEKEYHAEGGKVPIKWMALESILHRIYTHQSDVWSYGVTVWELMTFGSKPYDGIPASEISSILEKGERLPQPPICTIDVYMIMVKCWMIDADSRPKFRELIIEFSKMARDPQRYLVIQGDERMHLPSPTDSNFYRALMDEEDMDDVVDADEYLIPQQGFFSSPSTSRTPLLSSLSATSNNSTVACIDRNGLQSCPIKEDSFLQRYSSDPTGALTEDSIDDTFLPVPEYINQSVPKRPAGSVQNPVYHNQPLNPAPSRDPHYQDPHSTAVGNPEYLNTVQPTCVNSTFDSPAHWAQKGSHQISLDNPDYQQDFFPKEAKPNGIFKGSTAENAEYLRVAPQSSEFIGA
Excerpt: as §1

[8] = biological target: T8, EPHB3 (Homo sapiens, UniProt P54753)
T8 construct: purchased Thermo Fisher Scientific SelectScreen (plus Nanosyn / Reaction Biology for CDK/cyclin lines)
Excerpt: as §1

[9] = biological target: T9, EPHB4 (Homo sapiens, UniProt P54760)
T9 construct: purchased Thermo Fisher Scientific SelectScreen (plus Nanosyn / Reaction Biology for CDK/cyclin lines)
Excerpt: as §1

[10] = biological target: T10, FES (FPS) (Homo sapiens, UniProt P07332)
T10 construct: purchased Thermo Fisher Scientific SelectScreen (plus Nanosyn / Reaction Biology for CDK/cyclin lines)
Excerpt: as §1

[11] = biological target: T11, FGFR3 V555M (Homo sapiens, UniProt P22607, V555M)
T11 construct: purchased Thermo Fisher Scientific SelectScreen (plus Nanosyn / Reaction Biology for CDK/cyclin lines)
Excerpt: as §1

[12] = biological target: T12, FLT4 (VEGFR3) (Homo sapiens, UniProt P35916)
T12 construct: purchased Thermo Fisher Scientific SelectScreen (plus Nanosyn / Reaction Biology for CDK/cyclin lines)
Excerpt: as §1

[13] = biological target: T13, GSK3B (GSK3 beta) (Homo sapiens, UniProt P49841)
T13 construct: purchased Thermo Fisher Scientific SelectScreen (plus Nanosyn / Reaction Biology for CDK/cyclin lines)
Excerpt: as §1

[14] = biological target: T14, INSR (Homo sapiens, UniProt P06213)
T14 construct: purchased Thermo Fisher Scientific SelectScreen (plus Nanosyn / Reaction Biology for CDK/cyclin lines)
Excerpt: as §1

[15] = biological target: T15, ITK (Homo sapiens, UniProt Q08881)
T15 construct: purchased Thermo Fisher Scientific SelectScreen (plus Nanosyn / Reaction Biology for CDK/cyclin lines)
Excerpt: as §1

[16] = biological target: T16, LYN A (Homo sapiens, UniProt P07948)
T16 construct: purchased Thermo Fisher Scientific SelectScreen (plus Nanosyn / Reaction Biology for CDK/cyclin lines)
Excerpt: as §1

[17] = biological target: T17, MAPK11 (p38 beta) (Homo sapiens, UniProt Q15759)
T17 construct: purchased Thermo Fisher Scientific SelectScreen (plus Nanosyn / Reaction Biology for CDK/cyclin lines)
Excerpt: as §1

[18] = biological target: T18, MAPK14 (p38 alpha) Direct (Homo sapiens, UniProt Q16539)
T18 construct: purchased Thermo Fisher Scientific SelectScreen (plus Nanosyn / Reaction Biology for CDK/cyclin lines)
Excerpt: as §1

[19] = biological target: T19, MAPK7 (ERK5) (Homo sapiens, UniProt Q13164)
T19 construct: purchased Thermo Fisher Scientific SelectScreen (plus Nanosyn / Reaction Biology for CDK/cyclin lines)
Excerpt: as §1

[20] = biological target: T20, MAPKAPK2 (Homo sapiens, UniProt P49137)
T20 construct: purchased Thermo Fisher Scientific SelectScreen (plus Nanosyn / Reaction Biology for CDK/cyclin lines)
Excerpt: as §1

[21] = biological target: T21, MARK4 (Homo sapiens, UniProt Q96L34)
T21 construct: purchased Thermo Fisher Scientific SelectScreen (plus Nanosyn / Reaction Biology for CDK/cyclin lines)
Excerpt: as §1

[22] = biological target: T22, MINK1 (Homo sapiens, UniProt Q8N4C8)
T22 construct: purchased Thermo Fisher Scientific SelectScreen (plus Nanosyn / Reaction Biology for CDK/cyclin lines)
Excerpt: as §1

[23] = biological target: T23, NEK1 (Homo sapiens, UniProt Q96PY6)
T23 construct: purchased Thermo Fisher Scientific SelectScreen (plus Nanosyn / Reaction Biology for CDK/cyclin lines)
Excerpt: as §1

[24] = biological target: T24, NEK4 (Homo sapiens, UniProt P51957)
T24 construct: purchased Thermo Fisher Scientific SelectScreen (plus Nanosyn / Reaction Biology for CDK/cyclin lines)
Excerpt: as §1

[25] = biological target: T25, NEK9 (Homo sapiens, UniProt Q8TD19)
T25 construct: purchased Thermo Fisher Scientific SelectScreen (plus Nanosyn / Reaction Biology for CDK/cyclin lines)
Excerpt: as §1

[26] = biological target: T26, PAK6 (Homo sapiens, UniProt Q9NQU5)
T26 construct: purchased Thermo Fisher Scientific SelectScreen (plus Nanosyn / Reaction Biology for CDK/cyclin lines)
Excerpt: as §1

[27] = biological target: T27, PAK7 (KIAA1264) (Homo sapiens, UniProt Q9P286)
T27 construct: purchased Thermo Fisher Scientific SelectScreen (plus Nanosyn / Reaction Biology for CDK/cyclin lines)
Excerpt: as §1

[28] = biological target: T28, PHKG2 (Homo sapiens, UniProt P15735)
T28 construct: purchased Thermo Fisher Scientific SelectScreen (plus Nanosyn / Reaction Biology for CDK/cyclin lines)
Excerpt: as §1

[29] = biological target: T29, PRKCN (PKD3) (Homo sapiens, UniProt O94806)
T29 construct: purchased Thermo Fisher Scientific SelectScreen (plus Nanosyn / Reaction Biology for CDK/cyclin lines)
Excerpt: as §1

[30] = biological target: T30, PRKG1 (Homo sapiens, UniProt Q13976)
T30 construct: purchased Thermo Fisher Scientific SelectScreen (plus Nanosyn / Reaction Biology for CDK/cyclin lines)
Excerpt: as §1

[31] = biological target: T31, PTK2 (FAK) (Homo sapiens, UniProt Q05397)
T31 construct: purchased Thermo Fisher Scientific SelectScreen (plus Nanosyn / Reaction Biology for CDK/cyclin lines)
Excerpt: as §1

[32] = biological target: T32, RAF1 (cRAF) Y340D Y341D (Homo sapiens, UniProt P04049, Y340D/Y341D)
T32 construct: purchased Thermo Fisher Scientific SelectScreen (plus Nanosyn / Reaction Biology for CDK/cyclin lines)
T32 sequence (P04049 whole entry Y340D/Y341D): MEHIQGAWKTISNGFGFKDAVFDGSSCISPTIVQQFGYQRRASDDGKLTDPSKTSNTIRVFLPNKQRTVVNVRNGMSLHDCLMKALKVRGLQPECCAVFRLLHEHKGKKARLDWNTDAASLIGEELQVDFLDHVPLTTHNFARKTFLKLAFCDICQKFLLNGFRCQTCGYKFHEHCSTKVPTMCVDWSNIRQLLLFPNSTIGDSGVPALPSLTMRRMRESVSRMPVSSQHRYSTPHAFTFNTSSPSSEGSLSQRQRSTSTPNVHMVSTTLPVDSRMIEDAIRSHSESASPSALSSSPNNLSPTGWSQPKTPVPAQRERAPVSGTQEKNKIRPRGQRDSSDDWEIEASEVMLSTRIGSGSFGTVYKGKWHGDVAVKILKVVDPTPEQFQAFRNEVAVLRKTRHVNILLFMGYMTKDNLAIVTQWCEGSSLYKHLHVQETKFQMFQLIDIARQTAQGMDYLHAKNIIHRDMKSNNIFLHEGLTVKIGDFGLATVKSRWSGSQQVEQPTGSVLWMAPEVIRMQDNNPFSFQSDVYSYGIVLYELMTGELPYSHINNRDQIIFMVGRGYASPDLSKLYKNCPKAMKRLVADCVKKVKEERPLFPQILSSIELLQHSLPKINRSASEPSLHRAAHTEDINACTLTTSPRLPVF
Excerpt: as §1

[33] = biological target: T33, RET V804L (Homo sapiens, UniProt P07949, V804L)
T33 construct: purchased Thermo Fisher Scientific SelectScreen (plus Nanosyn / Reaction Biology for CDK/cyclin lines)
Excerpt: as §1

[34] = biological target: T34, ROS1 (Homo sapiens, UniProt P08922)
T34 construct: purchased Thermo Fisher Scientific SelectScreen (plus Nanosyn / Reaction Biology for CDK/cyclin lines)
T34 sequence (P08922 28-2347): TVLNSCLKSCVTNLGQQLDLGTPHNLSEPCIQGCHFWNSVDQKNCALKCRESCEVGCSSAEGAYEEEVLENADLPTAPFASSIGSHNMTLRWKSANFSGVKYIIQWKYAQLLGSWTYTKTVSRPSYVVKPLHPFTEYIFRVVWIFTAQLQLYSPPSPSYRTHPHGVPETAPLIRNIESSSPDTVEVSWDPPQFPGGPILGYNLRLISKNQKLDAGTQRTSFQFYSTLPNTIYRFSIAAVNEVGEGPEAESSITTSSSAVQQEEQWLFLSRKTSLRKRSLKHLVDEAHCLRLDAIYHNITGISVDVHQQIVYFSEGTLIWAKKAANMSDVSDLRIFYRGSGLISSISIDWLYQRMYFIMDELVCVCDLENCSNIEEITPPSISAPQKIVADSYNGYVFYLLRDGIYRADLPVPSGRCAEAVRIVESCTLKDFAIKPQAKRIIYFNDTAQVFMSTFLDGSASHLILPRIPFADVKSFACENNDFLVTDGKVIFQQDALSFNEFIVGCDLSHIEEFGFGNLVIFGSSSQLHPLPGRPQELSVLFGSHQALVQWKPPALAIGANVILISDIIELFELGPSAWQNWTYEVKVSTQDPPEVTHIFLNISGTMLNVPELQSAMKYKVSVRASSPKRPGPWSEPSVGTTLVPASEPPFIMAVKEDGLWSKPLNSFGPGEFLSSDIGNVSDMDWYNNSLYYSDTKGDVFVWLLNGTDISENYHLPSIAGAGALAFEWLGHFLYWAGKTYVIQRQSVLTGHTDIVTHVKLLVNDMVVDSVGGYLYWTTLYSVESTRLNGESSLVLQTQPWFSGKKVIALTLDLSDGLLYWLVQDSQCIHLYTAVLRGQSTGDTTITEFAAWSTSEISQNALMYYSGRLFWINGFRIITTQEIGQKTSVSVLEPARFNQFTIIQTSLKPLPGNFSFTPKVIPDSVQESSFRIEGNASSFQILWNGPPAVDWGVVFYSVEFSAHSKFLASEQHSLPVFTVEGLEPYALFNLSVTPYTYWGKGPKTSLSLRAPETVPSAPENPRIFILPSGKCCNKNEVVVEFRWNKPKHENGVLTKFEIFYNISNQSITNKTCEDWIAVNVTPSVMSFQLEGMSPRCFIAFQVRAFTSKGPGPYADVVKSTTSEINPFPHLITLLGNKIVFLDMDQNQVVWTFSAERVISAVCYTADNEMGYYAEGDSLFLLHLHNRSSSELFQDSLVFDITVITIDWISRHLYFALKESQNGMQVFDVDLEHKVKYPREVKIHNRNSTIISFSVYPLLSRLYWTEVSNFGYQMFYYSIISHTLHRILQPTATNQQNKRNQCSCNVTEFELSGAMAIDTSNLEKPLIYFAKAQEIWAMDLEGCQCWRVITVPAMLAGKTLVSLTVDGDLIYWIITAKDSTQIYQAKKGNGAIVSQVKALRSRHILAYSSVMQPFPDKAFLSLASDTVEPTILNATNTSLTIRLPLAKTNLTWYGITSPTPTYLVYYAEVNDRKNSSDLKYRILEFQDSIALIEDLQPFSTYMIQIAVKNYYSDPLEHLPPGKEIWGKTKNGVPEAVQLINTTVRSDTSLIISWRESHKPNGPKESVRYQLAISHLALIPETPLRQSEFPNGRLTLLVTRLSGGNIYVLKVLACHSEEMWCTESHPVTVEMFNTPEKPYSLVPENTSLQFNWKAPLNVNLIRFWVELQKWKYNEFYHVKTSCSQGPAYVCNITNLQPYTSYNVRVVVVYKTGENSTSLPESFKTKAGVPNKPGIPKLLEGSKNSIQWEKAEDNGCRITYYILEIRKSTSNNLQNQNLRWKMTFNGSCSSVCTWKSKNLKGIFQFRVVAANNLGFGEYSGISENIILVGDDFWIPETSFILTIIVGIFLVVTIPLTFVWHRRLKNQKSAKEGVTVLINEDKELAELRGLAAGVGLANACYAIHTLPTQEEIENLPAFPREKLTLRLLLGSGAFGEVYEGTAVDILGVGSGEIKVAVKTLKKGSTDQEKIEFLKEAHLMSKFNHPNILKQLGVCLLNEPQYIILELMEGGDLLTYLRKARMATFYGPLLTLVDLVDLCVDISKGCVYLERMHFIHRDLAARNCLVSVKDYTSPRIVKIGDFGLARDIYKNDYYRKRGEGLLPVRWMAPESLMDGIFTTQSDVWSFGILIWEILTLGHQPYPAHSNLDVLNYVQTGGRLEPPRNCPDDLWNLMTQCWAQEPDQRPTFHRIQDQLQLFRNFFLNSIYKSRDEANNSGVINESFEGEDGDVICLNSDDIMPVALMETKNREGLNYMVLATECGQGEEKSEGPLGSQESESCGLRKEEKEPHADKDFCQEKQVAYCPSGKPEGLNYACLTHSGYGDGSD
Excerpt: as §1

[35] = biological target: T35, RPS6KA2 (RSK3) (Homo sapiens, UniProt Q15349)
T35 construct: purchased Thermo Fisher Scientific SelectScreen (plus Nanosyn / Reaction Biology for CDK/cyclin lines)
Excerpt: as §1

[36] = biological target: T36, SRPK2 (Homo sapiens, UniProt P78362)
T36 construct: purchased Thermo Fisher Scientific SelectScreen (plus Nanosyn / Reaction Biology for CDK/cyclin lines)
Excerpt: as §1

[37] = biological target: T37, TBK1 (Homo sapiens, UniProt Q9UHD2)
T37 construct: purchased Thermo Fisher Scientific SelectScreen (plus Nanosyn / Reaction Biology for CDK/cyclin lines)
T37 sequence (Q9UHD2 whole entry): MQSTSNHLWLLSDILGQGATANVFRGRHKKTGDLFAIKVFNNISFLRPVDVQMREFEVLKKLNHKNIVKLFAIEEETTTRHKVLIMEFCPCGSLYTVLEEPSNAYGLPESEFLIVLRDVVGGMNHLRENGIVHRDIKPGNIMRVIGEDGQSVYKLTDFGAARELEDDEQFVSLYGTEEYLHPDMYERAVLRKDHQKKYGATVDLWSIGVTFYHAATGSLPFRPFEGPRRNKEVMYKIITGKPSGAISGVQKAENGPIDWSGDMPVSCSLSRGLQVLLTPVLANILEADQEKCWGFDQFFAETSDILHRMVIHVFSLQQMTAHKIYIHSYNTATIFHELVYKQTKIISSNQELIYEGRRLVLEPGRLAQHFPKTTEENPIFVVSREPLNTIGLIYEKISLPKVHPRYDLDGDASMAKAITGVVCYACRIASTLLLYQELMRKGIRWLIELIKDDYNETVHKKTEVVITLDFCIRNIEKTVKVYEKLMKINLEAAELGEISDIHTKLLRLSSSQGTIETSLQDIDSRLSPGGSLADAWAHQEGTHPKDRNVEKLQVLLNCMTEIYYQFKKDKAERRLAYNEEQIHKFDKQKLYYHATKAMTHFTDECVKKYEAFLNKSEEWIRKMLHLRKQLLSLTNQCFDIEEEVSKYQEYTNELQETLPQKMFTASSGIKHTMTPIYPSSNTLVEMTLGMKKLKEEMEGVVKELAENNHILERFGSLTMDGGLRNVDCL
Excerpt: as §1

NS(=O)(=O)c1ccc(Nc2ncc3cc4n(c3n2)C2(CCCCC2)C(=O)NN4)cc1 [INX-315]
inhibition at 0.1 µM [1]: 7% | inhibition at 0.1 µM [2]: 1% | inhibition at 0.1 µM [3]: 20% | inhibition at 0.1 µM [4]: 4% | inhibition at 0.1 µM [5]: 6% | inhibition at 0.1 µM [6]: 1% | inhibition at 0.1 µM [7]: 5% | inhibition at 0.1 µM [8]: 3% | inhibition at 0.1 µM [9]: 6% | inhibition at 0.1 µM [10]: 17% | inhibition at 0.1 µM [11]: 21% | inhibition at 0.1 µM [12]: 53% | inhibition at 0.1 µM [13]: 17% | inhibition at 0.1 µM [14]: 7% | inhibition at 0.1 µM [15]: 5% | inhibition at 0.1 µM [16]: 6% | inhibition at 0.1 µM [17]: 7% | inhibition at 0.1 µM [18]: 5% | inhibition at 0.1 µM [19]: 5% | inhibition at 0.1 µM [20]: 3% | inhibition at 0.1 µM [21]: 8% | inhibition at 0.1 µM [22]: 15% | inhibition at 0.1 µM [23]: -10% | inhibition at 0.1 µM [24]: 15% | inhibition at 0.1 µM [25]: 2% | inhibition at 0.1 µM [26]: 19% | inhibition at 0.1 µM [27]: 1% | inhibition at 0.1 µM [28]: 2% | inhibition at 0.1 µM [29]: 13% | inhibition at 0.1 µM [30]: 7% | inhibition at 0.1 µM [31]: 8% | inhibition at 0.1 µM [32]: 5% | inhibition at 0.1 µM [33]: 35% | inhibition at 0.1 µM [34]: 19% | inhibition at 0.1 µM [35]: 24% | inhibition at 0.1 µM [36]: 2% | inhibition at 0.1 µM [37]: 5%
